In this assay the target is T1, SYK (Homo sapiens, UniProt P43405).
T1 construct: The SYK kinase domain (residues 356-635) is amplified via PCR; made in house; host or cells: Sf9 insect cells (baculovirus, pFastBac1)
Kind of assay: SYK inhibition: in vitro assay of SYK-mediated phosphorylation of FAM-labeled substrate (Caliper LC-3000). Format: biochemical. To be noted: SYK kinase domain (residues 356-635); 2.4 nM SYK and 45 μM ATP, 3 μM 5FAM-KKKKEEIYFFFG-NH2, RT 60 min, pH 7.3; pIC50 = −log(IC50), IC50 molar. The procedure:
The ability of compounds to inhibit SYK activity may be assessed using a variety of methods, including in vitro and in vivo assays. The following in vitro assay measures a test compound's ability to inhibit SYK-mediated phosphorylation of a FAM-labeled SYK-specific substrate (5FAM-KKKKEEIYFFFG-NH2).
SYK protein is prepared from cDNA encoding human spleen tyrosine kinase and is expressed in insect cells using a baculovirus expression vector. The cDNA (IMAGE: 3542895) is purchased from Open Biosystems. The SYK kinase domain (residues 356-635) is amplified via PCR and cloned into plasmid pFastBacl (Invitrogen) at BamHI/XbaI sites. Recombinant plasmid encoding Met-Ala-Lys-SYK(356-635)-HHHHHH is sequenced and transformed into E. coli DH10Bac strain. The recombinant bacmid DNA is isolated and transfected into Sf9 insect cells. Recombinant virus is harvested 72 h after transfection. High titer viral stock is prepared by infecting Sf9 cells at a multiplicity of infection (MOI) of approximately 0.01. A suspension of Sf9 cells (10 L) is infected with recombinant virus (MOI=5) and is incubated in a Wave Bioreactor (GE-Healthcare) for 48 h. The cells are harvested and stored at −80° C.
To purify the expressed protein, the frozen Sf9 cells (10 L) are broken into small (<1 cm) particles and suspended in a lysis buffer (300 mL) containing 20 mM Tris (pH 7.6), 0.25 mM TCEP, 100 mM NaCl, 5% glycerol and a protease inhibitor. The suspension is stirred at RT until completely thawed, lysed an additional 2-4 min on a rotary blade homogenizer, and then centrifuged at 4200 g for 1 h. Following centrifugation, the supernatant is poured through cheese cloth and combined with a nickel chelating resin (Probond Resin™, Invitrogen) which is pre-equilibrated in a wash buffer containing 10 mM Tris (pH 7.6), 0.25 mM TCEP, 300 mM NaCl, 5% glycerol, and 20 mM imidazole. The mixture is agitated for 3 h in a cold room and then centrifuged at 900 g for 10 min. The resin is dispersed in wash buffer (50 mL), centrifuged for 10 min at 900 g, re-dispersed in a small amount of wash buffer (5 mL), and then pour into a disposable Poly-Prep chromatography column, through which wash buffer is passed by gravity until no protein is observed in coomassie buffer (about 120 mL of wash buffer). An elution buffer (30 mL) containing 10 mM HEPES (pH 7.4), 150 mM NaCl, 10% glycerol, 5 mM DTT, and 400 mM imidazole is used to elute the SYK protein from the resin. The eluate is concentrated (5 mL) and further purified on a Superdex 200 column (1.2 mL/min for 160 min, 10 mM HEPES (pH 7.4), 10 mM NaCl, 10 mM MgCl, 0.1 mM EDTA, and 0.25 mM TCEP). The chromatographed fractions are run on SDS-PAGE and the requisite fractions are pooled and concentrated. Final delivery buffer is 10 mM HEPES (pH 7.4), 10 mM Methione, 150 mM NaCl, 10% glycerol, 5 mM DTT.
SYK inhibition is determined using a black 384 well plate format in buffer containing 50 mM HEPES, 10 mM NaCl, 10 mM MgCl2, 0.2 mM EDTA, 0.01% EDA (Brij®35), 1 mM DTT, and 0.1 mg/ml BSA at pH 7.3. Each test compound is prepared in DMSO using 2-fold serial dilutions for 11 data points, which are added to the buffer so that each dilution contains 3% DMSO. To each well is added 2 μL of 3 μM SFAM-KKKKEEIYFFFG-NH2 (in buffer), 2 μL of diluted test compound (3% DMSO in buffer), and 2 μL of 2.4 nM SYK and 45 μM ATP (in buffer). The reaction mixture is incubated at RT for 60 min, and quenched by adding 50 mM Hepes, 30 mM EDTA, 0.1% Triton X-100 (pH 7.3). To quantify the fluorescent-labeled substrate and product following reaction, the test plate is loaded on a Caliper LC-3000, which measures percent of conversion by microfluidic-based separation. Corresponding IC50 values are calculated by non-linear curve fitting of the compound concentrations and percent of inhibition to the standard IC50 equation and reported as pIC50, i.e., −log(IC50), where IC50 is molar concentration.
One may read the IC50 as the concentration that gives 50% inhibition. Low values mean greater potency in that assay, high ones weaker potency in that assay. As for `N[C@H]1CCCC[C@H]1Nc1nc(-c2cc(F)cs2)c2c(c1F)CNC2=O` [Example 28, 6-((1R,2S)-2-Aminocyclohexylamino)-7-fluoro-4-(4-fluorothiophene-2-yl)-1H-pyrrolo[3,4-c]pyridin-3(2H)-one], the half-maximal inhibitory concentration (IC50) is 1.58 nM.
For `N[C@H]1COCC[C@H]1Nc1nc(-c2cc(C3CC3)ns2)c2c(c1F)CNC2=O` [Example 6, 6-((3R,4R)-3-Aminotetrahydro-2H-pyran-4-ylamino)-4-(3-cyclopropylisothiazol-5-yl)-7-fluoro-1H-pyrrolo[3,4-c]pyridin-3(2H)-one] the value was 0.794 nM; for `CCOC(=O)c1ccn2cc(-c3nc(N[C@@H]4CCOC[C@@H]4N)c(F)c4c3C(=O)NC4)cc2c1` [Example 39, Ethyl 2-(6-((3R,4R)-3-Aminotetrahydro-2H-pyran-4-ylamino)-7-fluoro-3-oxo-2,3-dihydro-1H-pyrrolo[3,4-c]pyridin-4-yl)indolizine-7-carboxylate], 2 nM; for `N[C@H]1COCC[C@H]1Nc1nc(-c2cc3cnccc3s2)c2c(c1F)CNC2=O` [Example 17, 6-((3R,4R)-3-Aminotetrahydro-2H-pyran-4-ylamino)-7-fluoro-4-(thieno[3,2-c]pyridin-2-yl)-1H-pyrrolo[3,4-c]pyridin-3(2H)-one], 0.251 nM.
For `Cc1ccn2ncc(-c3nc(N[C@@H]4CCCC[C@@H]4N)c(F)c4c3C(=O)N[C@@H]4C)c2c1` [Example 54, (R)-6-(((1R,2S)-2-Aminocyclohexyl)amino)-7-fluoro-1-methyl-4-(5-methylpyrazolo[1,5-a]pyridin-3-yl)-1H-pyrrolo[3,4-c]pyridin-3(2H)-one] the value was 50.1 nM.
Compound `Cc1ccn2ncc(-c3nc(N[C@@H]4CCCC[C@@H]4N)c(F)c4c3C(=O)N[C@H]4C)c2c1` [Example 55, (S)-6-(((1R,2S)-2-Aminocyclohexyl)amino)-7-fluoro-1-methyl-4-(5-methylpyrazolo[1,5-a]pyridin-3-yl)-1H-pyrrolo[3,4-c]pyridin-3(2H)-one] gave a 50% inhibitory concentration (IC50) of 251 nM.
For `Cc1nn(C)c2cc(-c3nc(N[C@@H]4CCCC[C@@H]4N)c(F)c4c3C(=O)NC4)sc12` [Example 31, 6-((1R,2S)-2-Aminocyclohexylamino)-4-(1,3-dimethyl-1H-thieno[3,2-c]pyrazol-5-yl)-7-fluoro-1H-pyrrolo[3,4-c]pyridin-3(2H)-one] the value was 0.126 nM.
In turn, `N[C@H]1COCC[C@H]1Nc1nc(-c2ccc(F)s2)c2c(c1F)CNC2=O` [Example 12, 6-((3R,4R)-3-Aminotetrahydro-2H-pyran-4-ylamino)-7-fluoro-4-(5-fluorothiophen-2-yl)-1H-pyrrolo[3,4-c]pyridin-3(2H)-one] showed a 50% inhibitory concentration (IC50) of 12.6 nM.
Under `N[C@H]1CCCC[C@H]1Nc1nc(-c2cc3ncccc3s2)c2c(c1F)CNC2=O` [Example 26, 6-((1R,2S)-2-Aminocyclohexylamino)-7-fluoro-4-(thieno[3,2-b]pyridin-2-yl)-1H-pyrrolo[3,4-c]pyridin-3(2H)-one] stands 5.01 nM.
`N[C@H]1CCCC[C@H]1Nc1nc(-c2cc3cc(F)ccc3s2)c2c(c1F)CNC2=O` [Example 16, 6-(((1R,2S)-2-Aminocyclohexyl)amino)-7-fluoro-4-(5-fluorobenzo[b]thiophen-2-yl)-1H-pyrrolo[3,4-c]pyridin-3(2H)-one]: half-maximal inhibition (IC50) was put at 0.316 nM.
Under `N[C@H]1COCC[C@H]1Nc1nc(-c2cc3n(c2)CCC3=O)c2c(c1F)CNC2=O` [Example 41, 6-((3R,4R)-3-Aminotetrahydro-2H-pyran-4-ylamino)-7-fluoro-4-(1-oxo-2,3-dihydro-1H-pyrrolizin-6-yl)-1H-pyrrolo[3,4-c]pyridin-3(2H)-one] stands 20 nM; under `N[C@H]1COCC[C@H]1Nc1nc(-c2cc3cc(C(=O)O)ccn3c2)c2c(c1F)CNC2=O` [Example 40, 2-(6-((3R,4R)-3-Aminotetrahydro-2H-pyran-4-ylamino)-7-fluoro-3-oxo-2,3-dihydro-1H-pyrrolo[3,4-c]pyridin-4-yl)indolizine-7-carboxylic acid], 0.2 nM.
